# What was measured:
# [1] = Antiproliferative activity against human THP1 cells after 72 hrs by XTT assay; type: functional, cell-based; conditions: THP-1, 72 h
# HEK293 [2] = assay: Selectivity index, ratio of IC50 for HEK293 cells to IC50 for human THP1 cells; type: functional
# HEK293 [3] = assay: Antiproliferative activity against HEK293 cells after 72 hrs by XTT assay; type: cell-based; conditions: Homo sapiens, HEK293, 72 h
# [4] = Induction of hydrogen peroxide generation at 100 uM after 30 mins by xylenol orange staining-based spectrophotometry in presence of GSH and oxygen; type: physicochemical; conditions: 0.5 h
# [5] = Antiproliferative activity against human glioma cells; type: functional, cell-based; conditions: Glioma cell
SMILES,IC50 [1] [µM],Ratio IC50 (HEK293 [2]),IC50 (HEK293 [3]) [µM],Activity [4] [µM],IC50 [5] [µM]
COc1cccc2c1C(=O)c1c(O)c3c(c(O)c1C2=O)C[C@@](O)(C(=O)CO)C[C@@H]3O[C@H]1C[C@H](N)[C@H](O)[C@H](C)O1 [DOXORUBICIN],0.11,6.4,0.7,,
CCOc1cccc2c1C(=O)C1OC1C2=O (stereo not given),9.6,,,1.68,
O=C1c2cccc([N+](=O)[O-])c2C(=O)C2OC12 (stereo not given),3.6,,12.4,5.2,
CC12OC1C(=O)c1c(O)cccc1C2=O (stereo not given),22.8,,,1.6,
CC12OC1C(=O)c1ccccc1C2=O (stereo not given),13.6,,,1.52,15.7
O=C1c2ccccc2C(=O)C2(c3cccc([N+](=O)[O-])c3)OC12 (stereo not given),> 50,,,1.4,
CC(=O)c1ccc(C23OC2C(=O)c2ccccc2C3=O)cc1 (stereo not given),> 50,,,1.36,
O=C1c2cccc(OCc3ccc(C(F)(F)F)cc3)c2C(=O)C2OC12 (stereo not given),> 50,,,1.68,
Nc1cccc2c1C(=O)C1OC1C2=O (stereo not given),> 50,,,1.68,
O=C1c2ccccc2C(=O)C2OC12 (stereo not given),6.3,,18.9,4.4,
O=C1c2ccc([N+](=O)[O-])cc2C(=O)C2OC12 (stereo not given),2.3,,55.4,8.34,
COc1ccc(C23OC2C(=O)c2ccccc2C3=O)cc1 (stereo not given),11.6,,,1.4,
O=C1c2cccc(OCc3ccccc3)c2C(=O)C2OC12 (stereo not given),28,,,1.6,
O=C1c2cccc(O)c2C(=O)C2OC12 (stereo not given),11.2,,,5.64,
Cc1ccc(C23OC2C(=O)c2ccccc2C3=O)cc1 (stereo not given),20.4,,,1.48,
O=C1c2ccccc2C(=O)C2(c3ccc(F)cc3)OC12 (stereo not given),11.7,,,1.36,
COc1ccccc1C12OC1C(=O)c1ccccc1C2=O (stereo not given),12.4,,,1.28,
CC12OC1C(=O)c1c(OCc3ccccc3)cccc1C2=O (stereo not given),> 50,,,1.58,
COc1cccc(C23OC2C(=O)c2ccccc2C3=O)c1 (stereo not given),> 50,,,1.46,
O=C1c2ccccc2C(=O)C2(c3ccccc3)OC12 (stereo not given),> 50,,,1.44,
